Patent US6060516A, “N^1 -propargylhydrazines, N^2 -propargylhydrazines and their analogs for the treatment of depression, anxiety and neurodegeneration” (CV Technologies, Inc., priority 1998, dated 2000)

Assays:
[1] = tested on: rat brain and liver monoamine oxidase-B; experiment: Monoamine oxidase-B inhibiting activity ex vivo; assay type: in vivo
Procedure: (§1) Radiolabelled β-phenylethylamine was employed as a substrate for monoamine oxidase-B. The compounds of interest were either injected intraperitoneally in DMSO or administered by gavage in water for various periods. The animals were killed by decapitation and the brains and livers immediately removed and frozen until assayed for monoamine oxidase-B activity. Tissues were homogenized and appropriately diluted in buffer prior to incubation. Incubations proceeded at 37° C. for 10 minutes. Incubation was terminated by the addition of acid and the radiolabelled product (phenylacetic acid) was extracted and quantified by liquid scintillation counting procedures. Incubations were done in triplicate and incubations containing phenelzine were included for comparison. The percent inhibition of monoamine oxidase-B activity compared to controls containing no drug was calculated.
(§2) Values are the mean ± the standard error based on (n) determinations.
(§3) Oral doses were administered as 75 μmol/kg on day 1, 75 μmol/kg on
(§4) day 2 and the animals were killed 5 hours later.

[2] = biological target: T1, rat brain monoamine oxidase-A (Rattus norvegicus, UniProt P21396); experiment: Monoamine oxidase-A inhibiting activity in vitro (radiochemical, 5-hydroxytryptamine substrate, rat brain homogenate); assay type: biochemical
T1 construct: appropriately diluted homogenates of rat brain or liver; from tissue; host or cells: rat brain or liver homogenate
T1 sequence (P21396 1-526): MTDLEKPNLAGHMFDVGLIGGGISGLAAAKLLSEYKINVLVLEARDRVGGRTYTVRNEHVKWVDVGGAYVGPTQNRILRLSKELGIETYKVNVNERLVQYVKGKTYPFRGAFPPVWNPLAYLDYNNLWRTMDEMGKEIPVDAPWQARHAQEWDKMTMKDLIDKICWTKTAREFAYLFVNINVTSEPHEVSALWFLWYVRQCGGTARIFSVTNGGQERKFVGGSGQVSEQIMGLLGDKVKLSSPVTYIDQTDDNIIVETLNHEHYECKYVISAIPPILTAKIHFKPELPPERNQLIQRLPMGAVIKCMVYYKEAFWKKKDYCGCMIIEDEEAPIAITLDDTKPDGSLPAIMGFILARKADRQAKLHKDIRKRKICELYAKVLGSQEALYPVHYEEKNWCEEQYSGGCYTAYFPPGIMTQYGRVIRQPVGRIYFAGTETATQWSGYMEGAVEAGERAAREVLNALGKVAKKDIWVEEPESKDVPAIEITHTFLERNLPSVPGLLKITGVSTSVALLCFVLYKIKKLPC
Procedure: Radiolabelled 5-hydroxytryptamine was used as the substrate for monoamine oxidase-A. Various concentrations of the compounds were incubated in appropriately diluted homogenates of rat brain or liver in a 0.2 M potassium phosphate buffer. Incubations proceeded at 37° C. for 10 minutes. Incubation was terminated by the addition of acid and the radiolabelled product (5-hydroxyindoleacetic acid) was extracted and quantified by liquid scintillation counting procedures. Incubations were done in triplicate and incubations containing phenelzine were included for comparison. The percent inhibition of monoamine oxidase-A activity compared to controls without the compounds of the present invention was calculated.

[3] = tested on: rat brain and liver monoamine oxidase-A; experiment: Monoamine oxidase-A inhibiting activity ex vivo; assay type: in vivo
Procedure: as §1, with “5-hydroxytryptamine” for “β-phenylethylamine”, “used” for “employed”, “oxidase-A.” for “oxidase-B.”, “intraperitonealy” for “intraperitoneally”, “oxidase-A” for “oxidase-B”, “(5-hydroxyindoleacetaldehyde and 5-hydroxyindoleacetic” for “(phenylacetic”
as §2, §3, §4

[4] = tested on: NA, DA, 5-HT, 5-HIAA and DOPAC concentrations in rat hypothalamus; experiment: Rat hypothalamus amine and amine metabolite concentrations; assay type: in vivo
Procedure: The effects of various doses of CVT-P040 on the concentrations of hypothalamus amine neurotransmitters and their metabolites were evaluated by examining concentrations of noradrenaline (NA), dopamine (DA), 5-hydroxytryptamine (5-HT), 5-hydroxyindoleacetic acid (5-HIAA) and 3,4-dihydroxyphenylacetic acid (DOPAC) in rat hypothalami 5 hours after the injection of the drug. […] The brains were removed and divided in half. One half of the brain was frozen in isopentane on dry ice and retained for estimates of amino acid neurotransmitter concentrations. The other half had the hypothalamus removed and frozen on dry ice for later estimates of amines and their metabolites according to the method of Sloley, B. D. and Goldberg J. I. (1991), Determination of γ-glutamyl conjugates of monoamines by means of high-performance liquid chromatography with electrochemical detection and application to gastropod tissues, J. Chromatog. 567: 49-56. The rest of the brain was frozen on dry ice for ex vivo examination of MAO activity as described earlier.

[5] = tested on: valine, alanine and gamma-aminobutyric acid (GABA) concentrations in rat brain; experiment: Brain valine, alanine and gamma-aminobutyric acid (GABA) concentrations; assay type: in vivo
Procedure: Effects of various doses of CVT-P040, CVT-P041 and phenelzine on the concentrations of some brain amino acids were evaluated by examining concentrations of gamma-aminobutyric acid (GABA) 5 hours after the injection of the drug. Briefly, rats were injected with CVT-P040 ([…]), vehicle, or phenelzine (150 μmol/kg) and killed 3 or 5 hours later. The brains were removed and divided in half. One half of the brain was frozen in isopentane on dry ice and retained for estimates of GABA concentrations. GABA and other amino acid concentrations were estimated using the method of Wong, J. T. F., Baker, G. B. and Coutts, R. T. (1990), A rapid, sensitive assay for γ-aminobutyric acid in brain using electron-capture gas chromatography, Res. Comm. Chem. Path. Pharmacol. 70: 115-122.

C#CCN(CCc1ccccc1)NC(C)=O [CVT-P041, N^1 -propargyl-N^2 -acetylphenelzine]
% Inhibition of Monoamine Oxidase-B ([1]; brain, 150 μmol/kg, 5 hr, i.p. in 10% DMSO (Table 4, MAO-B by title)): 77.6 ± 0.4% | % Inhibition of Monoamine Oxidase-B ([1]; brain, 2 × 75 μmol/kg per os (Table 4, MAO-B by title)): 73.6 ± 2.2% | % Inhibition of Monoamine Oxidase-B ([1]; liver, 2 × 75 μmol/kg per os (Table 4, MAO-B by title)): 97.4 ± 0.2% | inhibition at 100 µM ([2]; 1 × 10^-4 M): 79.5% | inhibition at 10 µM ([2]; 1 × 10^-5 M): 27.7% | inhibition at 1 µM ([2]; 1 × 10^-6 M): 4.2% | inhibition at 0.1 µM ([2]; 1 × 10^-7 M): 1.8% | inhibition at 0.01 µM ([2]; 1 × 10^-8 M): 0.3% | % Inhibition Monoamine Oxidase-A ([3]; brain, 150 μmol/kg, 5 hr, i.p. in 10% DMSO): 98.4 ± 0.0% | % Inhibition Monoamine Oxidase-A ([3]; brain, 2 × 75 μmol/kg per os (day 1 and day 2, killed 5 hours later)): 92.9 ± 1.7% | % Inhibition Monoamine Oxidase-A ([3]; liver, 2 × 75 μmol/kg per os (day 1 and day 2, killed 5 hours later)): 98.3 ± 0.2% | 5-HIAA ([4]; 150 μmol/kg, 5 hr, ip): 179 ± 6 ng/g | 5-HT ([4]; 150 μmol/kg, 5 hr, ip): 1100 ng/g | DA ([4]; 150 μmol/kg, 5 hr, ip): 461 ± 34 ng/g | DOPAC ([4]; 150 μmol/kg, 5 hr, ip): 91 ± 6 ng/g | NA ([4]; 150 μmol/kg, 5 hr, ip): 2141 ± 86 ng/g | 5-HIAA ([4]; 2 × 75 μmol/kg per os): 228 ± 17 ng/g | DOPAC ([4]; 2 × 75 μmol/kg per os): 50 ng/g | NA ([4]; 2 × 75 μmol/kg per os): 1749 ng/g | GABA ([5]; 150 μmol/kg, 5 hr, ip): 253 ± 0 µg/g | Valine ([5]; 150 μmol/kg, 5 hr, ip): 20.6 ± 0.5 µg/g | GABA concentrations ([5]; doses as high as 150 μmol/kg, in words): did not elevate GABA concentrations | elevation of alanine ([5]; in words): elevation of alanine was not seen
